SMILES strings stand for the structures.

The experiment deals with Panc-02 cells. As to conditions: concentration used as equivalent CB dose. Here is the method: Panc-02 cells or NIT-cells were seeded in 96-well plates. Cells were treated with various miR or CB-loaded SLNs formulations. TCA was used to fix the cells after treatment. The wells were then stained with sulforhodamine B (SRB) and rapidly rinsed with acetic acid. Following air drying. Tris base was added to each well, and the plates were examined using an ELISA reader. Cell viability (%)=(The absorbance value of treated cells)(The absorbance value of untreated cells)×100

The IC30 is the point of the concentration-response curve where the effect stands at 30%. Regarding `Cc1cc2c(C(N)=O)cccc2n1-c1nc2c(c(NCc3ccccc3)n1)COCC2` [CB, CB-5083], the IC30 is 210 nM.
